Counter-ions that a name gives are not always drawn. Like-named read-outs stand apart in the source and are kept apart here.
Assays:
Type in all cases: biochemical
recombinant PRL-1 = biological target: T1, recombinant PRL-1 (Homo sapiens, UniProt Q93096); assay: In vitro phosphatase assay (DiFMUP hydrolysis), PRL-1; further: test concentration or dose not given here
T1 construct: 6xHis (N, cleaved yes); made in house; host or cells: E. coli One Shot BL21 Star
T1 sequence (Q93096 1-173): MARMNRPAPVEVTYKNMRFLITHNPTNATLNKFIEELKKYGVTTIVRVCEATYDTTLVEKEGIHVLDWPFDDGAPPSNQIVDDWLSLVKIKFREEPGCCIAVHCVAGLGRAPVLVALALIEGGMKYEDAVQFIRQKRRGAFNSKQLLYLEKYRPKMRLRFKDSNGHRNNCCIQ

recombinant PRL-2 = biological target: T2, recombinant PRL-2 (Homo sapiens, UniProt Q12974); assay: In vitro phosphatase assay (DiFMUP hydrolysis), PRL-2;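 further: PRL-2 activity read as DiFMUP hydrolysis after 20 min at room temperature with drug, enzyme first pre-reduced at 4 °C for 20 min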
T2 construct: 6xHis (N, cleaved yes); made in house; host or cells: E. coli One Shot BL21 Star
T2 sequence (Q12974 1-167): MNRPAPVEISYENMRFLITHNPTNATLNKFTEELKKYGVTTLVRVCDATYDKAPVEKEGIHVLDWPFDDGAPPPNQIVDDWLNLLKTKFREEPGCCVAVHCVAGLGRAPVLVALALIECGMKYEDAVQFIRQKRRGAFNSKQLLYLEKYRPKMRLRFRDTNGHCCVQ

recombinant PRL-3 = biological target: T3, recombinant PRL-3 (Homo sapiens, UniProt O75365); assay: In vitro phosphatase assay (DiFMUP hydrolysis), PRL-3; further: test concentration or dose not given here
T3 construct: 6xHis (N, cleaved yes); made in house; host or cells: E. coli One Shot BL21 Star
T3 sequence (O75365 whole entry): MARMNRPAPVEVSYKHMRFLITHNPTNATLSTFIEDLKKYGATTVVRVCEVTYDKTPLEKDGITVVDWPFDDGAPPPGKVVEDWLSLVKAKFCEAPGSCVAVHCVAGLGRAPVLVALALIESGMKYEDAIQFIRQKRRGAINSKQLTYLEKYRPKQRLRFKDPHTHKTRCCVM

[1] = FDA-approved drug screen, compared to DMSO
[2] = FDA-approved drug screen, activity compared to DMSO

Compound	% Phosphatase Activity (compared to DMSO) PRL-1 (recombinant PRL-1; [1]) [%]	% Phosphatase Activity (compared to DMSO) PRL-2 (recombinant PRL-2; [1]) [%]	% Phosphatase Activity (compared to DMSO) PRL-3 (recombinant PRL-3; [1]) [%]	other results
Cc1ccnc2c1NC(=O)c1cccnc1N2C1CC1 [Nevirapine]	85	101	111	–
O=C(Nc1cccc2c(=O)cc(-c3nnn[nH]3)oc12)c1ccc(OCCCCc2ccccc2)cc1 [Pranlukast]	147	205	54	–
CN1CCN(CCOc2cc(OC3CCOCC3)c3c(Nc4c(Cl)ccc5c4OCO5)ncnc3c2)CC1 [Saracatinib (AZD0530)]	99	98	79	–
CNC(=O)c1cc(Oc2ccc(NC(=O)Nc3ccc(Cl)c(C(F)(F)F)c3)cc2)ccn1 [Sorafenib]	–	–	–	% Phosphatase Activity (compared to DMSO) PRL-1 (recombinant PRL-1; [2]): 91%; % Phosphatase Activity (compared to DMSO) PRL-2 (recombinant PRL-2; [2]): 80%; % Phosphatase Activity (compared to DMSO) PRL-3 (recombinant PRL-3; [2]): 95%
CC[N+](CC)(CC)CCOc1cccc(OCC[N+](CC)(CC)CC)c1OCC[N+](CC)(CC)CC [Gallamine Triethiodide]	104	105	84	–
CCOC(=O)[C@H](CCc1ccccc1)N[C@@H](C)C(=O)N1Cc2cc(OC)c(OC)cc2C[C@H]1C(=O)O [Moexipril HCl]	103	98	83	–
Cc1nccn1CC1CCc2c(c3ccccc3n2C)C1=O.Cl (stereo not drawn) [Ondansetron HCl]	103	108	96	–
COc1cc2/c(=N/c3ccc(Br)cc3F)nc[nH]c2cc1OCC1CCN(C)CC1 [Vandetanib (ZD6474)]	–	–	–	% Phosphatase Activity (compared to DMSO) PRL-1 (recombinant PRL-1; [2]): 96%; % Phosphatase Activity (compared to DMSO) PRL-2 (recombinant PRL-2; [2]): 98%; % Phosphatase Activity (compared to DMSO) PRL-3 (recombinant PRL-3; [2]): 77%
C[C@H](CCC(=O)O)[C@H]1CC[C@H]2[C@@H]3C(=O)C[C@@H]4CC(=O)CC[C@]4(C)[C@H]3CC(=O)[C@]12C [Dehydrocholic acid]	103	118	80	–
COc1nc(N)nc2c1ncn2[C@@H]1O[C@H](CO)[C@@H](O)[C@@H]1O [Nelarabine]	–	–	–	% Phosphatase Activity (compared to DMSO) PRL-1 (recombinant PRL-1): 93%; % Phosphatase Activity (compared to DMSO) PRL-2 (recombinant PRL-2): 108%; % Phosphatase Activity (compared to DMSO) PRL-3 (recombinant PRL-3): 79%
O=C(O)c1cccnc1Nc1cccc(C(F)(F)F)c1 [Niflumic acid]	109	112	88	–
CN[C@@H]1[C@@H](O)[C@@H](O[C@@H]2[C@@H](O)[C@H](O[C@H]3OC(CN)=CC[C@H]3N)[C@@H](N)C[C@H]2N)OC[C@]1(C)O [Sisomicin sulfate]	–	–	–	% Phosphatase Activity (compared to DMSO) PRL-1 (recombinant PRL-1; [2]): 83%; % Phosphatase Activity (compared to DMSO) PRL-2 (recombinant PRL-2; [2]): 84%; % Phosphatase Activity (compared to DMSO) PRL-3 (recombinant PRL-3; [2]): 107%
CC(C)[C@H]1C(=O)N[C@@H](CCCN=C(N)N)C(=O)NCC(=O)N[C@@H](CC(=O)O)C(=O)N[C@H](Cc2ccccc2)C(=O)N1C [Cilengitide]	100	91	96	–
Cl.NCCS [Cysteamine HCl]	91	79	70	–
NS(=O)(=O)c1cc2c(cc1Cl)N=C(CSCc1ccccc1)NS2(=O)=O [Benzthiazide]	111	115	99	–
CCCCCCNC(=O)n1cc(F)c(=O)[nH]c1=O [Carmofur]	89	95	73	–
Nc1ccn([C@H]2CC[C@@H](CO)O2)c(=O)n1 [Zalcitabine]	–	–	–	% Phosphatase Activity (compared to DMSO) PRL-1 (recombinant PRL-1; [2]): 93%; % Phosphatase Activity (compared to DMSO) PRL-2 (recombinant PRL-2; [2]): 105%; % Phosphatase Activity (compared to DMSO) PRL-3 (recombinant PRL-3; [2]): 89%
O=C(Nc1ccccc1)OCC(CN1CCCCC1)OC(=O)Nc1ccccc1 (stereo not drawn) [Diperodon HCl]	99	98	103	–
Oc1ncnc2[nH]ncc12 [Allopurinol]	104	97	77	–
C[N+](C)(C)CCO.[Cl-] [Choline Chloride]	–	–	–	% Phosphatase Activity (compared to DMSO) PRL-1 (recombinant PRL-1): 99%; % Phosphatase Activity (compared to DMSO) PRL-2 (recombinant PRL-2): 106%; % Phosphatase Activity (compared to DMSO) PRL-3 (recombinant PRL-3): 75%

Compound	% Phosphatase Activity (compared to DMSO) PRL-1 (recombinant PRL-1; [1]) [%]	% Phosphatase Activity (compared to DMSO) PRL-2 (recombinant PRL-2; [1]) [%]	% Phosphatase Activity (compared to DMSO) PRL-3 (recombinant PRL-3; [1]) [%]	other results
CNCCC(Oc1ccc(C(F)(F)F)cc1)c1ccccc1.Cl (stereo not drawn) [Fluoxetine HCl]	93	105	68	–
Cc1c(-c2ccccc2)oc2c(C(=O)OCCN3CCCCC3)cccc2c1=O [Flavoxate HCl]	103	109	113	–
NC(CO)(CO)CO [Trometamol]	–	–	–	% Phosphatase Activity (compared to DMSO) PRL-1 (recombinant PRL-1): 102%; % Phosphatase Activity (compared to DMSO) PRL-2 (recombinant PRL-2): 105%; % Phosphatase Activity (compared to DMSO) PRL-3 (recombinant PRL-3): 82%
CNS(=O)(=O)CCc1ccc2[nH]cc(C3CCN(C)CC3)c2c1 [Naratriptan]	103	86	90	–
CS(=O)(=O)c1ccc(C(=O)Nc2ccc(Cl)c(-c3ccccn3)c2)c(Cl)c1 [Vismodegib (GDC-0449)]	–	–	–	% Phosphatase Activity (compared to DMSO) PRL-1 (recombinant PRL-1; [2]): 94%; % Phosphatase Activity (compared to DMSO) PRL-2 (recombinant PRL-2; [2]): 99%; % Phosphatase Activity (compared to DMSO) PRL-3 (recombinant PRL-3; [2]): 79%
Heparin sodium	86	72	78	–
Nafarelin Acetate	91	91	91	–
CCCCC[C@H](O)/C=C/[C@H]1[C@H](O)CC(=O)[C@@H]1CCCCCCC(=O)O [Alprostadil]	117	113	98	–
CN(C/C=C/C#CC(C)(C)C)Cc1cccc2ccccc12 [Terbinafine HCl]	–	–	–	% Phosphatase Activity (compared to DMSO) PRL-1 (recombinant PRL-1; [2]): 100%; % Phosphatase Activity (compared to DMSO) PRL-2 (recombinant PRL-2; [2]): 108%; % Phosphatase Activity (compared to DMSO) PRL-3 (recombinant PRL-3; [2]): 86%
NC(=O)[C@@H](CCC(F)(F)F)N(Cc1ccc(-c2ncon2)cc1F)S(=O)(=O)c1ccc(Cl)cc1 [Avagacestat (BMS-708163)]	89	85	73	–
Cc1noc(NS(=O)(=O)c2ccc(N)cc2)c1C [Sulfisoxazole]	–	–	–	% Phosphatase Activity (compared to DMSO) PRL-1 (recombinant PRL-1; [2]): 88%; % Phosphatase Activity (compared to DMSO) PRL-2 (recombinant PRL-2; [2]): 95%; % Phosphatase Activity (compared to DMSO) PRL-3 (recombinant PRL-3; [2]): 89%
Cc1cc(Nc2cc(CN3CCOCC3)c3nc(C)c(Cc4ccc(Cl)cc4F)n3n2)n[nH]1 [LY2784544]	146	167	95	–
COc1cc2nc(N3CCN(C(=O)C4COc5ccccc5O4)CC3)nc(N)c2cc1OC (stereo not drawn) [Doxazosin Mesylate]	441	528	305	–
O=C1CN(/N=C/c2ccc(-c3ccc([N+](=O)[O-])cc3)o2)C(O)=N1 [Dantrolene sodium]	76	75	60	–
C=CC(=O)Nc1cccc(Nc2nc(Nc3ccc(N4CCN(C(C)=O)CC4)cc3OC)ncc2C(F)(F)F)c1 [CO-1686 (AVL-301)]	93	82	98	–
O=C(O)c1cc(/N=N/c2ccc(O)c(C(=O)O)c2)ccc1O [Olsalazine Sodium]	59	53	61	–
CCCCCCCCCC(=O)O[C@H]1CC[C@H]2[C@@H]3CCC4=CC(=O)CC[C@@H]4[C@H]3CC[C@]12C [Nandrolone decanoate]	93	94	90	–
O=C(NC1CCN(CCCCC2(C(=O)NCC(F)(F)F)c3ccccc3-c3ccccc32)CC1)c1ccccc1-c1ccc(C(F)(F)F)cc1 [Lomitapide Mesylate]	129	119	125	–
CC[C@H](CO)Nc1nc(NCc2ccccc2)c2ncn(C(C)C)c2n1 [Roscovitine (Seliciclib,CYC202)]	–	–	–	% Phosphatase Activity (compared to DMSO) PRL-1 (recombinant PRL-1): 108%; % Phosphatase Activity (compared to DMSO) PRL-2 (recombinant PRL-2): 111%; % Phosphatase Activity (compared to DMSO) PRL-3 (recombinant PRL-3): 96%
N#C[C@@H]1CCCN1C(=O)CNC12CC3CC(CC(O)(C3)C1)C2 [Vildagliptin (LAF-237)]	–	–	–	% Phosphatase Activity (compared to DMSO) PRL-1 (recombinant PRL-1; [2]): 99%; % Phosphatase Activity (compared to DMSO) PRL-2 (recombinant PRL-2; [2]): 136%; % Phosphatase Activity (compared to DMSO) PRL-3 (recombinant PRL-3; [2]): 94%

Reference: article PMC8119466, “A screen of FDA-approved drugs identifies inhibitors of protein tyrosine phosphatase 4A3 (PTP4A3 or PRL-3)” (Scientific Reports, 2021)
